Test results taken from ChEMBL document CHEMBL1201862, “PubChem BioAssay data set” (2004).
The source made the active and inactive calls.

What was measured:
[1] = target: T1, Fatty acid synthase (Homo sapiens, UniProt P49327); experiment: FAS thioesterase domain inhibitors, dose response, biochemical, kinetic fluorescence intensity (AID 624326); format: functional;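 also: rate of fluorescence rise from hydrolysis of a fluorogenic O-methyl fluorescein ester substrate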
[2] = target: T1, Fatty acid synthase; experiment: FAS thioesterase domain inhibitors, dose response, biochemical, endpoint fluorescence intensity, uHTS hits (AID 624327); format: functional;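 also: fluorescence from hydrolysis of an O-methyl fluorescein acyl ester substrate by the enzyme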
[3] = target: Beta-galactosidase (Escherichia coli, UniProt Q8VNN2); experiment: Dose response counterscreen for EBI2 assay utilizing the enzyme, b-galactosidase.; format: functional
Chain of Beta-galactosidase (Q8VNN2 whole entry, the tested form may be a part): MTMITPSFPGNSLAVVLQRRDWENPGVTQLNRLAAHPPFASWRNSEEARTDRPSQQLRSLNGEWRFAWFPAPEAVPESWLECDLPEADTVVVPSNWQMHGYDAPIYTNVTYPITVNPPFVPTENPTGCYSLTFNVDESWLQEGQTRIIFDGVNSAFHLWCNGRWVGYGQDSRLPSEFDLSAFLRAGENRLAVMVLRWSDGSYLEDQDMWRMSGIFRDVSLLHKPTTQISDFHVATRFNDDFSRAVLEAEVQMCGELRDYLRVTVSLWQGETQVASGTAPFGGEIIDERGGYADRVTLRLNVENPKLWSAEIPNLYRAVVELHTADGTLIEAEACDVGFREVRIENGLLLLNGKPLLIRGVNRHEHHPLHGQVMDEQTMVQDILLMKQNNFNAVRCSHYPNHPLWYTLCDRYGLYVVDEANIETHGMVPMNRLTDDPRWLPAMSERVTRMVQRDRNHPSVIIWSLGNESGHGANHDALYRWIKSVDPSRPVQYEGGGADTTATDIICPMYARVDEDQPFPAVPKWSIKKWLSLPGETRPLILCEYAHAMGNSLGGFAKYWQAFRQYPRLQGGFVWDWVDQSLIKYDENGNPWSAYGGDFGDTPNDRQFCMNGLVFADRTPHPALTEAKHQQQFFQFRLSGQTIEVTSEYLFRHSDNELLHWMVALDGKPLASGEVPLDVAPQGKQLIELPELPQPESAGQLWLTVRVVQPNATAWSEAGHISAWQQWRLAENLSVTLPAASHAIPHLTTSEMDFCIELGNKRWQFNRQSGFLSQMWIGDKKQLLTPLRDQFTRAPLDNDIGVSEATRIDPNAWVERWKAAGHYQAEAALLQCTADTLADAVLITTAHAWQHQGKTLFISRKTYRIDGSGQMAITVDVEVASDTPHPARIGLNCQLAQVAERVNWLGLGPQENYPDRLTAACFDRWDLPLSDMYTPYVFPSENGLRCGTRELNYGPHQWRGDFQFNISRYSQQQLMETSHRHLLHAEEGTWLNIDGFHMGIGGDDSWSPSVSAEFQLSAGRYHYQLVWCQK

[4] = ZM109 Env clade C HIV-1 fusion inhibitors, dose response, HeLa effector, CEM target cells, luciferase, cherry-pick (AID 652058); format: functional, cell-based
[5] = inhibitors of HIV Env-driven cell fusion, dose response, cherry-pick (AID 652057); format: functional, cell-based
[6] = inhibitors of clade B AD8 Env fusion, dose response, cell-based, cherry-pick (AID 652062); format: functional;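 also: luciferase signal from cell-cell fusion driven by HIV-1 clade B AD8 Env; potency is for inhibitors of fusion seen as a drop in luminescence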
[7] = target: T2, Estrogen receptor beta (Homo sapiens, UniProt Q92731);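 also: recombinant ER-beta bound to coactivator SRC1 peptide in presence of estradiol agonist; inhibitors block coactivator peptide binding and lower the FRET signal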
T2 sequence (Q92731 whole entry): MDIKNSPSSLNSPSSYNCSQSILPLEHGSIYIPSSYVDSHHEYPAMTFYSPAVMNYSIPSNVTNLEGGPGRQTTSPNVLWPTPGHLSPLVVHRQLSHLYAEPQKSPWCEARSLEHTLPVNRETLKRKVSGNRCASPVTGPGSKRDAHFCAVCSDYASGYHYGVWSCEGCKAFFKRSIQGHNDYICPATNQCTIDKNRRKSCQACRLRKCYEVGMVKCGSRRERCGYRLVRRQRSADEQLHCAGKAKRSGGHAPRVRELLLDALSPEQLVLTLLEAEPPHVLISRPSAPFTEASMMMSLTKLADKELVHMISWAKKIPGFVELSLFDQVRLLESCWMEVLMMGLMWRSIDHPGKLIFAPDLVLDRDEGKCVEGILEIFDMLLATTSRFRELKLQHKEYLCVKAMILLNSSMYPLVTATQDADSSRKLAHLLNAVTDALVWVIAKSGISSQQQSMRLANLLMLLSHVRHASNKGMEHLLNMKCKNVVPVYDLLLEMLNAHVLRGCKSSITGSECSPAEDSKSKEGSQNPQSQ

[8] = target: T2, Estrogen receptor beta; experiment: ERβ–SRC-3 coactivator interaction inhibitors, confirmation, orthogonal assay, biochemical, ELISA, streptavidin-HRP readout (AID 1060)
[9] = cells; format: functional
[10] = THP-1 cell cytotoxicity, dose response, cytotoxicity control for non-replicating M. tuberculosis project (AID 489025); format: functional
[11] = target: T3, Ubiquitin-conjugating enzyme E2 N (Homo sapiens, UniProt P61088); format: functional;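 also: Dose-response confirmation in a TR-FRET assay detecting UBC13-driven polyubiquitin chain formation, inhibition measured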
T3 sequence (P61088 whole entry): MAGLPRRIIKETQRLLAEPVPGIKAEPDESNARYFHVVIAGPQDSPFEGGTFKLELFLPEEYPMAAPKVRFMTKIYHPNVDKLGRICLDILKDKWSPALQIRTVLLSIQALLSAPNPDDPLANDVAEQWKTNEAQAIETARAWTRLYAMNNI

[12] = target: Protein Wnt-3a (Mus musculus, UniProt P27467); experiment: Wnt3a-driven reporter signaling inhibition, dose response, selectivity assay for Gli-SUFU antagonist project, Wnt-LIGHT cells, luminescence (AID 651570); format: functional; conditions: read-out: IC50_Mean;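 also: Wnt-LIGHT reporter cells stimulated with conditioned medium from Wnt3a-producing cells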
Chain of Protein Wnt-3a (P27467 whole entry): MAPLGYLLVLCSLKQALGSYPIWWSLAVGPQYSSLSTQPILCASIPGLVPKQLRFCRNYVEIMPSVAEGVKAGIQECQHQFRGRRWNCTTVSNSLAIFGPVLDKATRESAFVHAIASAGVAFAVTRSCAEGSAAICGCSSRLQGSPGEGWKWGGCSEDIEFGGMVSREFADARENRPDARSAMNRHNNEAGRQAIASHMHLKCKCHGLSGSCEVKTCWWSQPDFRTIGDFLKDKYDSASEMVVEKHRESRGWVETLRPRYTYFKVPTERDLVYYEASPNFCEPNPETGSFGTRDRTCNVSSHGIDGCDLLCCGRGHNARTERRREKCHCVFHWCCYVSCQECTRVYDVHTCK

[13] = target: T4, Mannose-6-phosphate isomerase (Homo sapiens, UniProt P34949); experiment: human PMI inhibitors, high substrate, primary screen, biochemical, fluorescence intensity, high mannose 6-phosphate (AID 1220)
T4 sequence (P34949 whole entry): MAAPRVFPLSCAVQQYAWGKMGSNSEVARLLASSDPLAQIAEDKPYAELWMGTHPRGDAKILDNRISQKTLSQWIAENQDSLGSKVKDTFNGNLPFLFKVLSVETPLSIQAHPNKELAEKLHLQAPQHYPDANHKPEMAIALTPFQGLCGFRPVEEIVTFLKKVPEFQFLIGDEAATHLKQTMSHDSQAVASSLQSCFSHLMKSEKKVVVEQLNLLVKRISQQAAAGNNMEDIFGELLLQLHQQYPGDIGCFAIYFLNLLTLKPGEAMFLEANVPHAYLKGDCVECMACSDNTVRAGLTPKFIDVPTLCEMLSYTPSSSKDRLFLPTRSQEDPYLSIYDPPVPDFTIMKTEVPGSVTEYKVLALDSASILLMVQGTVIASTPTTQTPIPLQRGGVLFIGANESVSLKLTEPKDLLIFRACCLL

[14] = target: T5, Polyadenylate-binding protein 1 (Homo sapiens, UniProt P11940); experiment: PABP1 MLLE–PAM2 interaction inhibitors, dose response, miRNA deadenylation inhibitor project, biochemical, fluorescence polarization, Cy5-PAM2 peptide, secondary (AID 602260); format: functional; conditions: read-out: IC50_Mean
T5 sequence (P11940 whole entry): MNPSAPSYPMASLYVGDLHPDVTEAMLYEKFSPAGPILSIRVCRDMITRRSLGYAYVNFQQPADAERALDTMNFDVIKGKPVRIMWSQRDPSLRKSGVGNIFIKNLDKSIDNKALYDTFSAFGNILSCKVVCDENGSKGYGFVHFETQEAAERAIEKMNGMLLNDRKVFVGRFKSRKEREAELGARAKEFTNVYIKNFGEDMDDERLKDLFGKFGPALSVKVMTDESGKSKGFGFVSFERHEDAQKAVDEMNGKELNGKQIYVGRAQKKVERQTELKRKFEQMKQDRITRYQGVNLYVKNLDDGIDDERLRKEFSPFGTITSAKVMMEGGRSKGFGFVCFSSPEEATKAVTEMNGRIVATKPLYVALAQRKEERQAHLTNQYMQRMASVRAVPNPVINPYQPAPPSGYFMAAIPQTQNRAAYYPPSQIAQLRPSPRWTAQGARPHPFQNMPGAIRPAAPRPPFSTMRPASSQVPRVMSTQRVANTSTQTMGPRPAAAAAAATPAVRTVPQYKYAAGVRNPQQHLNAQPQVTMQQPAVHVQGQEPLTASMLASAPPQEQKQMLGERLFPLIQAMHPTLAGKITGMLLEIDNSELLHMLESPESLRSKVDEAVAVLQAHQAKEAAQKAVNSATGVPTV

[15] = target: T5, Polyadenylate-binding protein 1; experiment: PABP1 MLLE–PAM2 binding inhibitor potency, dose response, biochemical, fluorescence polarization, FITC-PAM2 peptide (AID 602259); format: functional; conditions: read-out: IC50_Mean
[16] = target: T6, Protein RecA (Mycobacterium tuberculosis, UniProt P9WHJ3); experiment: Fluorescence Cell-Free Homogeneous Dose Retest to Identify Inhibitors of RecA-Intein Splicing Activity. [Related pubchem assays (depositor defined):AID2097, AID2223, AID489010, AID492950]; format: functional
T6 sequence (P9WHJ3 whole entry): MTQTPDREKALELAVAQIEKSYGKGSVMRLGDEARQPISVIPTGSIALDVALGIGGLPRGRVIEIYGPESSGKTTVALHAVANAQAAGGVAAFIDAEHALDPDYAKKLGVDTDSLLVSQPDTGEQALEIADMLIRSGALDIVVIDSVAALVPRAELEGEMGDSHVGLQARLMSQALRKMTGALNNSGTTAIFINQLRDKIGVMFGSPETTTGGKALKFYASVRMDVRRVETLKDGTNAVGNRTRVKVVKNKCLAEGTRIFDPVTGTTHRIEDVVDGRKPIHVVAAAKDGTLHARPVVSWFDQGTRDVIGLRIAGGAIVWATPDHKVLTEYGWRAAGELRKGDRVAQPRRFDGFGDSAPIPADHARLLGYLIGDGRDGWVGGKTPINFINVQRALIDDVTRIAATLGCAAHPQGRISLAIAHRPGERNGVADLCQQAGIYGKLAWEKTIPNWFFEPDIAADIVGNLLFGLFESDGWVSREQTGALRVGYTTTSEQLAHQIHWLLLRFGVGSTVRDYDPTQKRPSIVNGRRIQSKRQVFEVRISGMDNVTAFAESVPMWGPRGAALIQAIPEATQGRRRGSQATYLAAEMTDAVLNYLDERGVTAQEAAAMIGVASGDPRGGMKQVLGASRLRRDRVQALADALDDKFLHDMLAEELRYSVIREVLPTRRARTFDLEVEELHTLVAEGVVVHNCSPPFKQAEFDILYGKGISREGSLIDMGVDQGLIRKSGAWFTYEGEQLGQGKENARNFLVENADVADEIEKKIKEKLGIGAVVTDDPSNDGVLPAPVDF

[17] = target: T7, Replicative DNA helicase DnaB (Mycobacterium tuberculosis, UniProt P9WMR3); experiment: DnaB intein splicing inhibitors, dose response, biochemical, cell-free fluorescence (AID 449749); format: functional
T7 sequence (P9WMR3 whole entry): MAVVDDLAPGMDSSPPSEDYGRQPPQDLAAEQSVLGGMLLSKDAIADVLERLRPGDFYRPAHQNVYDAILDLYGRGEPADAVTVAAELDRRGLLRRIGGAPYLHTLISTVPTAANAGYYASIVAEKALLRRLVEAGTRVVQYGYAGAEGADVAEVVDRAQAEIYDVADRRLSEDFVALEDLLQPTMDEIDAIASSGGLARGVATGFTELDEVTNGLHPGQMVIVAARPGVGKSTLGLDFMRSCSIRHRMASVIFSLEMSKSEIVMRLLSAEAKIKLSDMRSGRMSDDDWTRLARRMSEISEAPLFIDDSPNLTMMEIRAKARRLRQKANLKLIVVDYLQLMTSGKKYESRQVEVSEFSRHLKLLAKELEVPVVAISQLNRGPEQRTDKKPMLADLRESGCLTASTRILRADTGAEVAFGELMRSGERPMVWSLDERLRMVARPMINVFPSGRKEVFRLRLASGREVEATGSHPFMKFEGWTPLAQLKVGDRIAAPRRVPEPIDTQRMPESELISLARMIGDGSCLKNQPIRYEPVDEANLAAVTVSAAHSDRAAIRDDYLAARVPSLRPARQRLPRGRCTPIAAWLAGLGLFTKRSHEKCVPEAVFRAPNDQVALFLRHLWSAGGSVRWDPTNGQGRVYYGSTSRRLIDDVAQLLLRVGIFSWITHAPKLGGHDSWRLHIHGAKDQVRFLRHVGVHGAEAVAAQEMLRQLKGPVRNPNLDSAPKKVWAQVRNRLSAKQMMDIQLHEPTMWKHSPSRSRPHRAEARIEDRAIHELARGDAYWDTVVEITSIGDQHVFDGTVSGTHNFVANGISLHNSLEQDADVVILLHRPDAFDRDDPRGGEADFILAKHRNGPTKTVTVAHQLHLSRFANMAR

[18] = intracellular Trypanosoma cruzi inhibitors in host cells – cell-based, plate reader, cherry-pick samples, set 3, dose response (AID 651818); format: functional;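 also: compounds incubated with infected cells for about four days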
[19] = target: T8, Leucine aminopeptidase (Plasmodium falciparum 3D7, UniProt Q8IL11); experiment: P. falciparum M17LAP inhibitors, primary screen, biochemical, fluorogenic H-Leu-NHMec substrate, 1536-well (AID 1619); format: functional
T8 sequence (Q8IL11 whole entry): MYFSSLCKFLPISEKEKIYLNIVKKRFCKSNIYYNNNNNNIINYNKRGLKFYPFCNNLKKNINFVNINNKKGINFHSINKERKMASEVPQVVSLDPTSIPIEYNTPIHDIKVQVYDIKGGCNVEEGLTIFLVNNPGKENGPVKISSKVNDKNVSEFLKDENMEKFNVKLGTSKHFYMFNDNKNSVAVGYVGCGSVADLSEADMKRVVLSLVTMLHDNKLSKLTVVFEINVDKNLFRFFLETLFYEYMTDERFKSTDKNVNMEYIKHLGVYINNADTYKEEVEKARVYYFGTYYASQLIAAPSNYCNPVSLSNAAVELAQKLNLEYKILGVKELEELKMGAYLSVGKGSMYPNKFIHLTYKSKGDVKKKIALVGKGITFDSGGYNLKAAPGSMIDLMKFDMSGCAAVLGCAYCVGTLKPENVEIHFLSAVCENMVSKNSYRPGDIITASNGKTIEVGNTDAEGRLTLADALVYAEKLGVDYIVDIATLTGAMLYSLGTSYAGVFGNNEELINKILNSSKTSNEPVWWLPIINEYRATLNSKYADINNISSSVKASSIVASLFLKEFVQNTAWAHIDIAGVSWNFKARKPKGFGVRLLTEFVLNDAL

[20] = system: Vero; experiment: Vero cell cytotoxicity, cytotoxicity control for flavivirus capping enzyme inhibitors (AID 588742); format: functional; conditions: Chlorocebus sabaeus

T1 sequence (P49327 whole entry, the tested form may be a part): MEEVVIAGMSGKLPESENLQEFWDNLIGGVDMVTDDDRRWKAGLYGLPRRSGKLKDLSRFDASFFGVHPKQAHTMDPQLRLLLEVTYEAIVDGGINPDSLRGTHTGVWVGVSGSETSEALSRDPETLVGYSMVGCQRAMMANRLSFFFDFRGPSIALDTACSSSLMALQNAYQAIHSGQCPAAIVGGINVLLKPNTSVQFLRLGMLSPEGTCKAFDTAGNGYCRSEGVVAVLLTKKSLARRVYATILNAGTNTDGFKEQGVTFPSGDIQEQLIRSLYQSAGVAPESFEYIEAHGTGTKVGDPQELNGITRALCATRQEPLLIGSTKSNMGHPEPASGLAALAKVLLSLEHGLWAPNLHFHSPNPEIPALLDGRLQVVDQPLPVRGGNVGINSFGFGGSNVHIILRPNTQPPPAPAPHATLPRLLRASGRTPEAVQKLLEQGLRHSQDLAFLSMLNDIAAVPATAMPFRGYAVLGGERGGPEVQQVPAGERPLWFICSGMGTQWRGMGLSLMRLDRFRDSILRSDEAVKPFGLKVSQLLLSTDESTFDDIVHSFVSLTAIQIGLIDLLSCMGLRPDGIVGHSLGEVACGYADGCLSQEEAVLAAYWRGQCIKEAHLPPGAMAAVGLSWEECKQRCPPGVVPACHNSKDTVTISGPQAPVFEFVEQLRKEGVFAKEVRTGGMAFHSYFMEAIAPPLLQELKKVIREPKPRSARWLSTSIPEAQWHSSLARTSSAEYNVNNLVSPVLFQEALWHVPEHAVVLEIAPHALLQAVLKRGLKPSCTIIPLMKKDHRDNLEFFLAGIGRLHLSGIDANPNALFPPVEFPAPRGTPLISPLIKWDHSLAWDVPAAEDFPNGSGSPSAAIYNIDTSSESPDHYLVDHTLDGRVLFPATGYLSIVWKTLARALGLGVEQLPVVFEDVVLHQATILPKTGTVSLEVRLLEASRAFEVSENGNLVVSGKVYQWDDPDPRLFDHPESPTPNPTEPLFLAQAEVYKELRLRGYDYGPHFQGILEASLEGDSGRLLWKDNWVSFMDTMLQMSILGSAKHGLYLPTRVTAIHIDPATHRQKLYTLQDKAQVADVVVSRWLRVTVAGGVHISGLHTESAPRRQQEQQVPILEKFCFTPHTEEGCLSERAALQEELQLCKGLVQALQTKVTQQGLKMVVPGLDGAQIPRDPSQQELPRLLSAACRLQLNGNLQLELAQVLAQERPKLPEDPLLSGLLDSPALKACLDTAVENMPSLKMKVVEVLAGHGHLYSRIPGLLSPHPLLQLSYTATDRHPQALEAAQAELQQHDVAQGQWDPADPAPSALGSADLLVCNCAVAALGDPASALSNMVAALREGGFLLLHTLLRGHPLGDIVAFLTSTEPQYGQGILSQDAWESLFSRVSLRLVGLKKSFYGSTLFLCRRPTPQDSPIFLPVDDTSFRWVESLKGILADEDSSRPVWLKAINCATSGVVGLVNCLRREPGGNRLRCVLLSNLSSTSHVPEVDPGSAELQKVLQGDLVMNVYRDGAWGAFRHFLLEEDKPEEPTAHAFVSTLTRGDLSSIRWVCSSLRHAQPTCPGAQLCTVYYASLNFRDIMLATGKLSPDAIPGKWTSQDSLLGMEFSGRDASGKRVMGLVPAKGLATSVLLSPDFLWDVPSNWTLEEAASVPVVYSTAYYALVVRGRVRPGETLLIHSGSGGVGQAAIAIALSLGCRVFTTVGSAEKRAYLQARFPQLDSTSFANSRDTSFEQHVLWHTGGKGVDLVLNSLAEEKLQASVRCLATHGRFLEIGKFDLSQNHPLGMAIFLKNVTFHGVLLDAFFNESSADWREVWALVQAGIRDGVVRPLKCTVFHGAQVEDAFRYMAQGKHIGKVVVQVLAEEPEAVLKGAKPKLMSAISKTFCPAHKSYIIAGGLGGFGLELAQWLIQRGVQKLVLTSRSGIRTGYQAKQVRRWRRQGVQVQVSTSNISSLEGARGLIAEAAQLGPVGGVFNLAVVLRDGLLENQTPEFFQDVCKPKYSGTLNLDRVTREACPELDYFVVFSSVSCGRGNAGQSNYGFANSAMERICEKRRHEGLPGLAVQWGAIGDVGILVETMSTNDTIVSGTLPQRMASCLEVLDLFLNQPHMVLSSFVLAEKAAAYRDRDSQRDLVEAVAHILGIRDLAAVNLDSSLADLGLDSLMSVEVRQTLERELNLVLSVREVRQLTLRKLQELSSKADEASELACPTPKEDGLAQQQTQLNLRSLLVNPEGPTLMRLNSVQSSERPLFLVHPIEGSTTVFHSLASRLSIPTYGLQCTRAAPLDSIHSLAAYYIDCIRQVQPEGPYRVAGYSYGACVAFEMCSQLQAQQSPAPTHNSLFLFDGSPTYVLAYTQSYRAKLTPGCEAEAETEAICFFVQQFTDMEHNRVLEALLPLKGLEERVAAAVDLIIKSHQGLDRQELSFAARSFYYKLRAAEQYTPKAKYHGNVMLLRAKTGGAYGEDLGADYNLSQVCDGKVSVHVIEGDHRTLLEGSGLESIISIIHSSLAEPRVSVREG

CN(CCOc1ccccc1)CC(=O)Nc1ccc([N+](=O)[O-])cc1Cl
IC50 [1]: 12.7 µM (active) | IC50 [2]: 9.54 µM (active)

Nc1c(-c2cccc(Cl)c2)cnn1-c1cccc([N+](=O)[O-])c1
IC50 [1]: 12 µM (active) | IC50 [2]: 11 µM (active)

CCc1ccc2oc(C(=O)N3CCN(c4ccccc4OC)CC3)cc(=O)c2c1
IC50 [3]: > 80 µM (inactive)

COc1ccc(-c2nn(CCC#N)cc2C(=O)Nc2ccc(C(C)=O)cc2)cc1[N+](=O)[O-]
IC50 [1]: 4.1 µM (active) | IC50 [2]: 1.41 µM (active)

O=C(c1cc(COc2cccc(C(F)(F)F)c2)on1)N1C[C@@H]2CCC[C@H]1C2
IC50 [1]: 10.7 µM (active) | IC50 [2]: 12.4 µM (active)

Cc1ccc(S(=O)(=O)N(C)C[C@@H]2Oc3cc(Br)ccc3S(=O)(=O)N([C@H](C)CO)C[C@@H]2C)cc1
AC50 [4]: 7.1 µM (active) | AC50 [5]: 4.58 µM (active) | AC50 [6]: 26.6 µM (active)

NC(=O)c1ccsc1NC(=O)COC(=O)Cc1ccsc1
IC50 [7]: 5.55 µM (active) | IC50 [8]: 1.84 µM (not active)

CCC(C)[C@H]1CN=C(N)N1CCc1cccc2ccccc12 (some centres undefined)
IC50 [9]: 22.5 µM (active) | CC50 [10]: 15.8 µM (active) | IC50 [11]: > 20 µM (inactive) | IC50 [12]: 6.06 µM (active)

CCOC(=O)COc1ccc2c(C#N)c3ccccn3c2c1
IC50 [13]: > 50 µM (not active) | IC50 [14]: > 66 µM (inactive) | IC50 [15]: > 66 µM (inactive)

O=C(CSc1ccc([N+](=O)[O-])cn1)Nc1ccc2c(c1)OCCO2
IC50 [1]: 4.17 µM (active) | IC50 [2]: 1.51 µM (active)

CCCc1nn(-c2ccccc2)c2c1C(c1cccs1)C(C#N)=C(N)O2 (centres undefined)
EC50 [16]: 3.58 µM (active) | AC50 [17]: 12.6 µM (active) | IC50 [3]: > 80 µM (inactive)

CCOC(=O)c1c(-c2cccs2)csc1N
IC50 [13]: > 50 µM (not active)

C[C@H]1CN([C@@H](C)CO)C(=O)c2cc(NC(=O)Cc3cn(C)c4ccccc34)ccc2O[C@H]1CN(C)Cc1ccc(-c2ccccc2)cc1
AC50 [18]: 3.27 µM (active)

C[C@@H]1CN([C@@H](C)CO)C(=O)c2cc(NS(=O)(=O)c3ccc(Cl)cc3)ccc2O[C@@H]1CN(C)Cc1ccc(-c2ccccc2)cc1
AC50 [18]: 3.31 µM (active)

C[C@@H]1CCCCO[C@@H](CN(C)Cc2ccc(Cl)c(Cl)c2)[C@@H](C)CN([C@H](C)CO)C(=O)c2cc(NC(=O)C3CCCCC3)ccc2O1
AC50 [18]: 2.9 µM (active)

COc1cccc(-c2[nH]nc3c2C(c2ccoc2)C(C#N)=C(N)O3)c1 (centres undefined)
EC50 [16]: 1.07 µM (active) | AC50 [17]: 8.72 µM (active) | IC50 [7]: 20 µM (active) | IC50 [19]: 76.8 µM (active) | IC50 [8]: > 50 µM (not active)

COc1ccc2ccc3c(c2c1)N=CC1(O3)N(C)c2ccccc2C1(C)C (centres undefined)
EC50 [16]: 36.2 µM (active) | AC50 [17]: 2.96 µM (active) | IC50 [13]: > 50 µM (not active)

COc1cc(/C=N/NC(=O)c2cc3ccccc3cc2O)ccc1OCCN1CCCCC1
IC50 [13]: > 50 µM (not active) | CC50 [20]: > 40 µM (active)

COc1ccc(/C=C(\C#N)C(=O)Nc2cc(S(=O)(=O)N3CCOCC3)ccc2N2CCCC2)cc1
IC50 [3]: > 80 µM (inactive)

C[C@@H]1CN([C@H](C)CO)C(=O)c2cc(NC(=O)Nc3ccc(C(F)(F)F)cc3)ccc2O[C@H]1CN(C)S(=O)(=O)c1ccccc1
AC50 [18]: 7.36 µM (active)

O=C(/C=C/c1ccccc1)N1CCN(c2cccc(Cl)n2)CC1
IC50 [3]: > 80 µM (inactive)

Nc1ccc2c(c1)OC1(CCCCC1)O2
IC50 [13]: > 50 µM (not active)
